# Experimental data taken from paper PMC4368200, “Triclabendazole Sulfoxide Causes Stage-Dependent Embryolethality in Zebrafish and Mouse In Vitro” (PLoS ONE, 2015).
# “Also recorded” adds a separate entry of the source. Read-outs that look alike come from different tables or passages of the source. Marks after values point to notes of the source that are not given here.
# Key:
# zebrafish embryos = test: Zebrafish embryo test (ZFET); type: in vivo, Danio rerio; conditions: for Dysmorphogenic embryos / Morphological score: 50 hpf
# Description: The day before the test, adult male and female zebrafish were transferred (1:1) to breeding tanks (Aquaneering, San Diego, California). Artificial plants and marbles were used as spawning substrate. Spawning and fertilization took place within 30 min after the onset of light in the morning. Eggs were collected and extensively cleaned with ISO-standard 7346 water diluted 1:5 using deionized water. Fertilized eggs were selected under a dissection stereomicroscope (Motic SMZ168, Motic China group, LTD., China). The eggs presenting overt anomalies like asymmetries, formation of vesicles or damaged membranes were discarded.
# Exposure and evaluation of eggs was performed as described before with slight variations. At 2 hours post-fertilization (hpf) fertilized eggs were selected and transferred to 6-well plates (Greiner Bio-one, Germany). Ten embryos were randomly distributed into wells and filled with 5 mL of freshly prepared test solutions. TCBZ, TCBZSO, ABZ and ABZSO were dissolved in DMSO and subsequently diluted in 0.3x Danieau’s buffer to a final DMSO concentration of 0.05% (v/v). Embryos were incubated at 26 ± 1°C with a dark-light cycle of 10–14 h for 48 h. Embryolethality was determined at 8 hpf on the basis of egg coagulation, at 26 hpf by the absence of tail detachment or somites formation, and at 50 hpf by the absence of heartbeat. Developmental and teratogenic effects were assessed at 50 hpf by the total morphological score described in [32].
# The working concentrations for ZFET experiments were 0.1 μM, 0.5 μM, 1 μM, 2.5 μM and 5 μM for TCBZ studies and 0.5 μM, 1 μM, 2.5 μM, 5 μM, 10 μM and 50 μM for TCBZSO. The experiments with ABZ were performed including concentrations of 0.025 μM, 0.05 μM, 0.1 μM, 0.3 μM and 0.5 μM and for ABZSO they included 1 μM, 6 μM, 12 μM, 25 μM and 50 μM.
# [1] = humans, cited from earlier work
# [2] = test system: mouse embryos at the one-cell stage; test: Preimplantation whole embryo culture (preWEC); set-up: species or system B6CBAF1 mice; conditions: for preWEC LOAEC (lethality): GD 0 to GD 4
# Description: Female mice (6–12 weeks old) were superovulated by intraperitoneal injections of 5 IU of pregnant mare’s serum gonadotropin (Intervet, Spain) and 5 IU of human chorionic gonadotropin (Farma-Lepori, Spain), 48 h apart, and mated with adult males (2:1). Embryos at the one-cell stage were obtained 24 h after the second injection by tearing the oviducts in Hepes-buffered Chatot Ziomek Bavister medium with 150 U/ml hyaluronidase (HCZB) to dissociate the cumulus cells. Denuded embryos were then washed in HCZB and cultured for 96 h in drops of culture medium, potassium simplex optimized medium (KSOM) under oil at 37°C and 5% CO2, with or without the compounds of study. TCBZ and TCBZSO dissolved in DMSO were diluted in KSOM medium and the final DMSO concentration in the culture medium was […]. Control embryos were cultured in the presence of […]. Embryos were observed under the stereomicroscope every 24 h to assess if they were progressing normally until the blastocyst stage or, otherwise, they were arrested in a previous developmental stage. In each observation the number of embryos at the correct developmental stage (two-cells at 24 h, four-cells at 48 h, morula at 72 h and blastocyst at 96 h) were counted.
# TCBZ and TCBZSO concentration ranges for the preWEC study were selected based on the results of the ZFET. The tested concentrations for this technique were 1 μM, 3 μM and 10 μM for TCBZ studies and 3 μM, 10 μM, 30 μM and 100 μM for TCBZSO studies.
compound,measurement,setting,value
"C[S+]([O-])c1nc2cc(Oc3cccc(Cl)c3Cl)c(Cl)cc2[nH]1 (stereo not drawn) [TCBZSO, Triclabendazole sulfoxide]",Lethality,"zebrafish embryos; 0.5 μM, 2-50 hpf",17%
same,Dysmorphogenic embryos,zebrafish embryos; 0.5 μM,0%
same,Morphological score,zebrafish embryos; 0.5 μM,36.0 ± 0.0
same,Lethality,"zebrafish embryos; 1 μM, 2-50 hpf",10%
same,Dysmorphogenic embryos,zebrafish embryos; 1 μM,0%
same,Morphological score,zebrafish embryos; 1 μM,36.0 ± 0.0
same,Lethality,"zebrafish embryos; 2.5 μM, 2-50 hpf",20%
same,Dysmorphogenic embryos,zebrafish embryos; 2.5 μM,0%
same,Morphological score,zebrafish embryos; 2.5 μM,36.0 ± 0.0
same,Lethality,"zebrafish embryos; 5 μM, 2-50 hpf",7%
same,Dysmorphogenic embryos,zebrafish embryos; 5 μM,0%
same,Morphological score,zebrafish embryos; 5 μM,36.0 ± 0.0
same,Lethality,"zebrafish embryos; 10 μM, 2-50 hpf",35 ^* %
same,Dysmorphogenic embryos,zebrafish embryos; 10 μM,0%
same,Morphological score,zebrafish embryos; 10 μM,36.0 ± 0.0
same,Lethality,"zebrafish embryos; 50 μM, 2-50 hpf",100 ^* %
same,ZFET LOAEC dysmorphogenesis,zebrafish embryos; 2-50 hpf,No dysmorphogenesis were observed; also recorded: not dysmorphogenic
same,ZFET LOAEC lethality,zebrafish embryos; 2-50 hpf,10 µM
same,ZFET NOAEC,zebrafish embryos; 2-50 hpf,5 µM
same,"Embryolethal concentration, times lower than ABZSO concentrations killing the embryos",zebrafish embryos; ZFET,five
same,"Embryolethal concentration, times lower than ABZSO concentrations producing malformations",zebrafish embryos; ZFET,2.5 times
same,Cmax,"[1]; 10 mg/kg TCBZ, depending on concomitant food intake, reviewed by 22, 10 mg/kg, read-out: TCBZSO Cmax in plasma",38.6 µM
same,Cmax,"[1]; 10 mg/kg TCBZ, calculated from ref 43, read-out: TCBZSO Cmax in plasma",26.6 µM
same,Adverse effects in preimplantation embryos,[2]; 3 μM,did not induce adverse effects
same,Lethality 2-cells 24 h,[2]; 3 μM,4.2%
same,Lethality 4-cells 48 h,[2]; 3 μM,14.6%
same,Lethality Blastocyst 96 h,[2]; 3 μM,31.3%
same,Lethality Morula 72 h,[2]; 3 μM,16.7%
same,Lethality 2-cells 24 h,[2]; 10 μM,24.5 ^* %
same,Lethality 4-cells 48 h,[2]; 10 μM,30.6 ^* %
same,Lethality Blastocyst 96 h,[2]; 10 μM,55.1 ^* %
same,Lethality Morula 72 h,[2]; 10 μM,36.7 ^* %
same,Lethality 2-cells 24 h,[2]; 30 μM,24.5 ^* %
same,Lethality 4-cells 48 h,[2]; 30 μM,79.6 ^* %
same,Lethality Blastocyst 96 h,[2]; 30 μM,98 ^* %
same,Lethality Morula 72 h,[2]; 30 μM,95.9 ^* %
same,Lethality 2-cells 24 h,[2]; 100 μM,100 ^* %
same,Lethality 4-cells 48 h,[2]; 100 μM,100 ^* %
same,Lethality Blastocyst 96 h,[2]; 100 μM,100 ^* %
same,Lethality Morula 72 h,[2]; 100 μM,100 ^* %
same,preWEC LOAEC (lethality),[2],10 µM
"CSc1nc2cc(Cl)c(Oc3cccc(Cl)c3Cl)cc2[nH]1 [TCBZ, 5-chloro-6-(2,3-dichlorophenoxy)-2-(methylthio)benzimidazole]",Frequency of dysmorphogenesis: Developmental delay,zebrafish embryos; 0.1 µM,6.7%
same,Frequency of dysmorphogenesis: Flexion,zebrafish embryos; 0.1 µM,3.3%
same,Frequency of dysmorphogenesis: Head-body pigmentation,zebrafish embryos; 0.1 µM,6.7%
same,Lethality,"zebrafish embryos; 0.1 μM, 2-50 hpf",0%
same,Dysmorphogenic embryos,zebrafish embryos; 0.1 μM,6.7%
same,Morphological score,zebrafish embryos; 0.1 μM,34.8 ± 1.8
same,Frequency of dysmorphogenesis: Cardiac oedema,zebrafish embryos; 0.5 µM,13.3%
same,Lethality,"zebrafish embryos; 0.5 μM, 2-50 hpf",0%
same,Dysmorphogenic embryos,zebrafish embryos; 0.5 μM,13.3%
same,Morphological score,zebrafish embryos; 0.5 μM,34.8 ± 0.0
same,Adverse effects in zebrafish embryos,zebrafish embryos; 1 μM,did not present any adverse effects
same,Frequency of dysmorphogenesis: Brain necrosis,zebrafish embryos; 1 μM,10%
same,Frequency of dysmorphogenesis: Cardiac oedema,zebrafish embryos; 1 μM,10%
same,Frequency of dysmorphogenesis: Flexion,zebrafish embryos; 1 μM,6.7%
same,Lethality,"zebrafish embryos; 1 μM, 2-50 hpf",0%
same,Dysmorphogenic embryos,zebrafish embryos; 1 μM,13.3%
same,Morphological score,zebrafish embryos; 1 μM,35.8 ± 0.4
same,Frequency of dysmorphogenesis: Developmental delay,zebrafish embryos; 2.5 µM,50%
same,Frequency of dysmorphogenesis: Flexion,zebrafish embryos; 2.5 µM,20%
same,Frequency of dysmorphogenesis: Head-body pigmentation,zebrafish embryos; 2.5 µM,50%
same,Lethality,"zebrafish embryos; 2.5 μM, 2-50 hpf",0%
same,Dysmorphogenic embryos,zebrafish embryos; 2.5 μM,60 ^* %
same,Morphological score,zebrafish embryos; 2.5 μM,33.0 ± 3.4
same,Lethality,"zebrafish embryos; 5 μM, 2-50 hpf",100 ^* %
same,ZFET LOAEC dysmorphogenesis,zebrafish embryos; 2-50 hpf,2.5 µM
same,ZFET LOAEC embryonic differentiation (total morphological score),zebrafish embryos; 2-50 hpf,2.5 μM
same,ZFET LOAEC lethality,zebrafish embryos; 2-50 hpf,5 µM
same,Cmax,"[1]; therapeutical dose of 10 mg/kg TCBZ, reviewed by 22, read-out: TCBZ Cmax in plasma",1.16 µM
same,Lethality 2-cells 24 h,[2]; 1 μM,4.2%
same,Lethality 4-cells 48 h,[2]; 1 μM,8.3%
same,Lethality Blastocyst 96 h,[2]; 1 μM,18.8%
same,Lethality Morula 72 h,[2]; 1 μM,8.3%
same,Adverse effects in preimplantation embryos,[2]; 3 μM,did not produce any significant effect
same,Lethality 2-cells 24 h,[2]; 3 μM,6.3%
same,Lethality 4-cells 48 h,[2]; 3 μM,6.3%
same,Lethality Blastocyst 96 h,[2]; 3 μM,20.8%
same,Lethality Morula 72 h,[2]; 3 μM,10.4%
same,Lethality 2-cells 24 h,[2]; 10 μM,18.4 ^* %
same,Lethality 4-cells 48 h,[2]; 10 μM,24.5 ^* %
same,Lethality Blastocyst 96 h,[2]; 10 μM,36.7%
same,Lethality Morula 72 h,[2]; 10 μM,24.5 ^* %
same,preWEC LOAEC (lethality),[2],10 µM
same,"Lethal concentration in preimplantation embryos, times higher than in vivo relevant concentrations",[2]; preWEC,10 times
